Source: PMC5671890 (Journal of molecular medicine (Berlin, Germany), 2017)
In brackets after ≈: the same amount, converted by molar mass. Structures can show the parent of a compound that is named as a salt. Positions of bridges follow the written chain, without caps; N, C: chain ends. Non-standard residues stand in square brackets, D forms with d. Residues, ends and D or L forms follow the SMILES beside them. *: point of attachment. X1 = CC[C@H](C)CCCCC(=O)*; Dab = NCC[C@H](N)C(=O)O

What was measured:
Format in all cases: cell-based
Conditions in all cases: cation-adjusted Mueller Hinton broth, serial 2-fold dilutions, repeated 3 times
[1] = test system: Pseudomonas aeruginosa PAO1 Wt
[2] = test system: Pseudomonas aeruginosa PAO1 vacJ−:vacJ complemented strain
[3] = test system: Pseudomonas aeruginosa PAO1 vacJ− mutant

SMILES | MIC [1] [µg/mL] | MIC [2] [µg/mL] | MIC [3] [µg/mL]
CC[C@H](C)CCCCC(=O)N[C@@H](CCN)C(=O)N[C@H](C(=O)N[C@@H](CCN)C(=O)N[C@H]1CCNC(=O)[C@H]([C@@H](C)O)NC(=O)[C@H](CCN)NC(=O)[C@H](CCN)NC(=O)[C@H](CC(C)C)NC(=O)[C@@H](CC(C)C)NC(=O)[C@H](CCN)NC1=O)[C@@H](C)O [Colistin, colistin sulfate] (X1-[Dab]T[Dab][Dab][Dab][dL]L[Dab][Dab]T; lactam 4-C (inferred); N-terminus assumed) | 1 | 1 | 0.5
CC[C@H](C)CCCCC(=O)N[C@@H](CCN)C(=O)N[C@H](C(=O)N[C@@H](CCN)C(=O)N[C@H]1CCNC(=O)[C@H]([C@@H](C)O)NC(=O)[C@H](CCN)NC(=O)[C@H](CCN)NC(=O)[C@H](CC(C)C)NC(=O)[C@@H](Cc2ccccc2)NC(=O)[C@H](CCN)NC1=O)[C@@H](C)O [Polymyxin B] (X1-[Dab]T[Dab][Dab][Dab][dF]L[Dab][Dab]T; lactam 4-C (inferred); N-terminus assumed) | 0.5 (≈ 0.415 µM) | 0.5 (≈ 0.415 µM) | 0.25 (≈ 0.208 µM)
